Values joined by “and” are separate entries in the source; they are usually repeats but may differ in a detail not shown here. Equal values may be shown once.
Assays:
Test in all cases: Sensitivity to antimicrobial agents, Kirby-Bauer disk methodology
Type in all cases: cell-based
E. coli = settings: Central Region, clinical bovine mastitis isolates
Procedure: (§1) The following antimicrobial agents were assessed (Oxoid Ltd. Hampshire, England): • Amoxicillin/clavulanic acid (AMC), • Trimethropin/sulfamethoxazole (SXT), • Cefotaxime (CTX), • Gentamicin (GN) and • Neomycin (NE).
(§2) The bacterial specimens were analyzed according to the Kirby-Bauer disk methodology following the recommendations provided by the guidelines of the Clinical Laboratory Standards Institute (CLSI 2012b) and the BSAC standard (Andrews and Trial 2008).
(§3) The microorganisms were incubated in Mueller Hinton agar plates at 35° C. for 18-24 hours in aerobics atmosphere. As quality control E. coli (ATCC 25922) and Staphylococcus aureus (25923) were used. The CLSI cut-off points were used to interpret the susceptibility of all microbial agents. For the determination of the cut-off point value for neomycin (NE), the BSAC standard was applied.

CNS = settings: clinical bovine mastitis isolates
Procedure: as §1, §2, §3

S. aureus = settings: Southern Region, clinical bovine mastitis isolates
Procedure: as §1, §2, §3

S. uberis = settings: Southern Region, clinical bovine mastitis isolates
Procedure: as §1, §2, §3

Compound | Resistant (%) (E. coli) | Resistant N° (E. coli) | Resistant (%) (CNS; Central Region) | Resistant N° (CNS; Central Region) | Resistant (%) (CNS; Southern Region) | Resistant N° (CNS; Southern Region) | Resistant (%) (S. aureus) | Resistant N° (S. aureus) | Resistant (%) (S. uberis) | Resistant N° (S. uberis) | Resistant (%) (S. uberis; listed as CTK)
Gentamicin [GN] | 15.4% | 2 | 0.0 | 0 | 0.0 | 0 | 0.0 | 0 | 43% and 42.9% | 9 | 
NC[C@@H]1O[C@H](O[C@H]2[C@@H](O)[C@H](O[C@@H]3[C@@H](O)[C@H](N)C[C@H](N)[C@H]3O[C@H]3O[C@H](CN)[C@@H](O)[C@H](O)[C@H]3N)O[C@@H]2CO)[C@H](N)[C@@H](O)[C@@H]1O [Ne, Neomycin] | 54% and 53.8% | 7 | 15.4 | 2 | 5.9 | 1 | 21.4 | 6 | 52% and 52.4% | 11 | 
Trimethropin/sulfamethoxazole [SXT] | 15.4% | 2 | 0.0 | 0 | 0.0 | 0 | 3.6 | 1 | 0.0% | 0 | 
Amoxicillin/clavulanic acid [AMC] | 23.0% | 3 | 0.0 | 0 | 0.0 | 0 | 7.1 | 2 | 0.0% | 0 | 
CO/N=C(\C(=O)N[C@@H]1C(=O)N2C(C(=O)O)=C(COC(C)=O)CS[C@H]12)c1csc(N)n1 [CTX, Cefotaxime] | 15.4% | 2 | 0.0 | 0 | 5.9 | 1 | 3.6 | 1 | 23.8% | 5 | 24
